Source: ChEMBL document CHEMBL1145939, “Analyses of activity for factor Xa inhibitors based on Monte Carlo simulations” (J Med Chem, 2003)

Each molecule was assayed against Coagulation factor X (Homo sapiens, UniProt P00742) (assay: Inhibition of human Coagulation factor X was determined).
Sequence of Coagulation factor X (P00742 41-179 limits assumed): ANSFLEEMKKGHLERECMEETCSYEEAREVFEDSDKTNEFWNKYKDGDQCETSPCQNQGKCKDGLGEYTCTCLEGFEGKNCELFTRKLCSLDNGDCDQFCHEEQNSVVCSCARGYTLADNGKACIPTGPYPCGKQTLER
Sequence of Coagulation factor X (P00742 235-488 limits assumed): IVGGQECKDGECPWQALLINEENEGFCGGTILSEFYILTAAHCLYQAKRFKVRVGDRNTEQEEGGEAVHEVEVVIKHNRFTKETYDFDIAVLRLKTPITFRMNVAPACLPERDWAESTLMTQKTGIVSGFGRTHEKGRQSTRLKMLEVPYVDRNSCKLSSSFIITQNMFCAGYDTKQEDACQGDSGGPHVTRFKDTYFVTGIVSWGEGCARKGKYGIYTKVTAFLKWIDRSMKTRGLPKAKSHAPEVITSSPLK
Work on `Cc1c(F)c(Oc2cccc(CC(=O)C(C)C)c2)nc(Oc2cccc(C(=N)N)c2)c1F` yielded a Ki of 2100 nM. Work on `CC(=O)Cc1cccc(Oc2nc(Oc3cccc(C(=N)N)c3)c(F)c(C)c2F)c1` yielded a Ki of 1400 nM. With `CN1CC(C)(C)N=C1c1cccc(Oc2cc(C(=O)O)cc(Oc3cc(C(=N)N)ccc3O)n2)c1` the Ki was 810 nM. For `Cc1c(F)c(Oc2cccc(C(=N)N)c2)nc(Oc2cccc(N3CCCCC3)c2)c1F`, the Ki was 650 nM.
